Results as given in paper PMC12177125, “Anticancer, antimicrobial and molecular docking analysis of newly synthesized iodoquinazoline derivatives” (AMB Express, 2025).
≈ marks a conversion by molar mass, not a printed value. Where “and” joins values, the source holds several entries; their conditions need not be identical. Equal values may be shown once. Entries after “also recorded” stand apart in the source; their conditions may differ. Read-outs that look alike come from different tables or passages of the source.

What was measured:
[1] = system: C. albicans (CA) ATCC 14053; test: Broth microdilution MIC, C. albicans; type: cell-based; settings: Candida albicans, ATCC14053, CLSI
Experimental: (§1) The five newly synthesized compounds were first qualitatively evaluated for antibacterial and antifungal activities using Muller-Hinton agar medium (MHA) through the agar well diffusion technique as previously described (Balouiri et al. [2016]). The bacterial test was performed against the following standard strains: S. aureus (SA) ATCC 25913, E. coli (EC) ATCC 25922, P. aeruginosa (PA) ATCC 27853, K. pneumoniae (KP) ATCC 49619. The antifungal activity was evaluated against C. albicans (CA) ATCC 14053 (CLSI [2021]). A bacterial culture and preparation of wells on a seeded MHA plate was performed as previously described (Isleem et al. [2025]). The experiment was done in triplicate according to CLSI guidelines (CLSI [2021]). Secondly, the compounds that gave positive inhibition zones were selected for MIC determination using broth microdilution assay according to CLSI guidelines (CLSI [2021]). […]

[2] = system: C. albicans (CA) ATCC 14053; test: Agar well diffusion, C. albicans; type: cell-based, Candida albicans; settings: average of triplicate
Experimental: as §1

[3] = system: MIA-PaCa-2 (human pancreatic adenocarcinoma); test: MTT cytotoxicity assay, MIA PaCa2; type: cell-based; settings: 96 h continuous exposure, read-out: In vitro antitumor activities (IC50) MIA PaCa2 (Pancreatic)
Text: (§2) Four immortalized human cancer cell lines served as a panel for testing the compounds' cytotoxicity. The STAT3-null A4 cell line (with homozygously deleted STAT3) is a sub-line of the DLD1 colorectal carcinoma cell line and was a gift from Professor David Thurston, Emeritus Professor of Drug Discovery, King’s College London. The American Type Culture Collection and LGC provided the cell lines for HeLa (human cervical cancer), MIA-PaCa-2 (human pancreatic adenocarcinoma), MDA MB231 (triple negative human breast cancer), and NCI H1975 (human non-small cell lung cancer). Every cell line was kept in monolayer culture in 75 cm^2 flasks (TPP, Switzerland) at 37 °C in a humidified environment containing 5% CO2. The HeLa line was kept in Dulbecco's Modified Eagles Media (DMEM; Invitrogen), which was enhanced with L-glutamine (2 mM; Invitrogen), non-essential amino acids (1 x; Invitrogen), 10% v/v fetal bovine serum, and Penicillin–Streptomycin (1% v/v; Invitrogen).
(§3) Dulbecco's MEM was utilized for MIA PaCa2, and it was enhanced with fetal calf serum (10%, Biosera UK) and L-glutamine (2 mM; Invitrogen). The following materials were employed for sub-culturing: L-glutamine (2 mM; Invitrogen), fetal bovine serum (10%, Biosera UK), high glucose DMEM (4.5 g/l; Invitrogen), Penicillin–Streptomycin (1% v/v, Invitrogen), and non-essential amino acids (1x; Invitrogen). Penicillin–Streptomycin (1% v/v, Invitrogen) and fetal bovine serum (10% v/v; Invitrogen) were added to Roswell Park Memorial Institute Medium 1640 (RPMI 1640, Invitrogen) to sustain the NCI H1975 cell lines. Cells were passaged by rinsing them in PBS (GIBCO 14040, Invitrogen, UK), culturing them with trypsin (GIBCO 25300, Invitrogen, UK), and then reseeding them into new media. Cells were counted for seeding on a non-adherent suspension of cells that were rinsed in PBS, trypsinized, centrifuged at 8 °C for 5 min at 8000 rpm, and then re-suspended in new media using a Neubauer hemocytometer (Assistant, Germany) by microscopy (Nikon, USA).
(§4) Using the proper medium, the cells were cultured under standard cell culture conditions at 37 °C in a humidified atmosphere with 5% CO2. Depending on the cell line, 5,000–20,000 cells were added per well after the cell count was adjusted to 10^5 cells/mL. After a 24-h incubation period, 1 μL of the suitable inhibitor doses were applied in triplicate to the wells (Freimoser et al. [1999]). The MTT colorimetric test (3-(4,5-Dimethylthiazol-2-yl)-2,5-diphenyltetrazolium bromide) (Lancaster Synthesis Ltd, UK) was used to assess the cytotoxicity of each chemical after 96 h of continuous exposure (Freimoser et al. [1999]). Using an Envision Plate Reader from PerkinElmer, USA, spectrophotometry was used to measure absorbance at λ = 570 nm. Using the Prism Graphpad Prism® program, a dose–response analysis was used to get the IC50 values. MDA MB231; HeLa; MIA Cell lysis buffer was added to PaCa2 cells after they had been exposed to different doses of chemical 3e. The cells were then collected. Following the electrophoresis of total cell lysates on precast TGX gels, β-actin and CAXII antibodies were immunoblotted (Ghomashi et al. [2023]). Doxorubicin was used as a positive control (Ghomashi et al. [2023]).

[4] = system: S. aureus (SA) ATCC 25913; test: Agar well diffusion, S. aureus; type: cell-based, Staphylococcus aureus; settings: average of triplicate
Experimental: as §1

E. coli (EC) ATCC 25922 [5] = test: Broth microdilution MIC, E. coli; type: cell-based; settings: Escherichia coli, ATCC25922, CLSI
[6] = system: four tested tumor cell lines; test: MTT cytotoxicity assay, panel of the four tumor cell lines; type: cell-based, human; settings: for IC50: Homo sapiens, range across HeLa, MDA MB231, MIA PaCa2, NCI H1975, read-out: IC50 / concentration stopping growth, range over the four tumor cell lines
Text: as §2, §3
Using the proper medium, the cells were cultured under standard cell culture conditions at 37 °C in a humidified atmosphere with 5% CO2. Depending on the cell line, 5,000–20,000 cells were added per well after the cell count was adjusted to 10^5 cells/mL. After a 24-h incubation period, 1 μL of the suitable inhibitor doses were applied in triplicate to the wells (Freimoser et al. [1999]). The MTT colorimetric test (3-(4,5-Dimethylthiazol-2-yl)-2,5-diphenyltetrazolium bromide) (Lancaster Synthesis Ltd, UK) was used to assess the cytotoxicity of each chemical after 96 h of continuous exposure (Freimoser et al. [1999]). Using an Envision Plate Reader from PerkinElmer, USA, spectrophotometry was used to measure absorbance at λ = 570 nm. […]

[7] = system: MDA MB231 (triple negative human breast cancer); test: MTT cytotoxicity assay, MDA MB231; type: cell-based; settings: MDA-MB-231, 96 h continuous exposure, read-out: In vitro antitumor activities (IC50) MDA MB231 (Breast)
Text: as §2, §3, §4

[8] = system: HeLa (human cervical cancer); test: MTT cytotoxicity assay, HeLa; type: cell-based; settings: 96 h continuous exposure, read-out: In vitro antitumor activities (IC50) HeLa (Cervical)
Text: as §2, §3, §4

[9] = target: T1, carbonic anhydrase XII (CAXII) (Bos taurus, UniProt P00921); test: Carbonic anhydrase (CAXII) inhibition, 4-nitrophenyl acetate, 96-well plate; type: biochemical, bovine
T1 construct: purified bovine erythrocyte CA-II; from tissue; host or cells: bovine erythrocytes
T1 sequence (P00921 2-260): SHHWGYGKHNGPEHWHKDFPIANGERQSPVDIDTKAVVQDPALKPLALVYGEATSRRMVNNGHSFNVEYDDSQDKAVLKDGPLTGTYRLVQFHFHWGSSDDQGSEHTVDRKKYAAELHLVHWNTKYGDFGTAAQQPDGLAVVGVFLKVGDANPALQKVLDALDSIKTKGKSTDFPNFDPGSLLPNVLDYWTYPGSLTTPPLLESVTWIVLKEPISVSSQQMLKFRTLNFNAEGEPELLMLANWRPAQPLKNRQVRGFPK

[10] = system: S. aureus (SA) ATCC 25913; test: Broth microdilution MIC, S. aureus; type: cell-based; settings: Staphylococcus aureus, ATCC25913, CLSI
[11] = system: P. aeruginosa (PA) ATCC 27853; test: Agar well diffusion, P. aeruginosa; type: cell-based, Pseudomonas aeruginosa; settings: average of triplicate
Experimental: as §1

[12] = system: P. aeruginosa (PA) ATCC 27853; test: Broth microdilution MIC, P. aeruginosa; type: cell-based; settings: Pseudomonas aeruginosa, ATCC27853, CLSI
E. coli (EC) ATCC 25922 [13] = test: Agar well diffusion, E. coli; type: cell-based, Escherichia coli; settings: average of triplicate
Experimental: as §1

[14] = system: STAT3-null A4 cell line (sub-line of DLD1 colorectal carcinoma); test: MTT cytotoxicity assay, A4 control cell line; type: cell-based; settings: Homo sapiens, DLD-1, 96 h continuous exposure, read-out: In vitro antitumor activities (IC50) A4 Cell line (Control cell line)
Text: as §2, §3, §4

[15] = system: NCI H1975 (human non-small cell lung cancer); test: MTT cytotoxicity assay, NCI H1975; type: cell-based; settings: 96 h continuous exposure, read-out: In vitro antitumor activities (IC50) NCI H1975 (non-small cell Lung)
Text: as §2, §3, §4

[16] = read-out: CAXII inhibitory activity (IC50)

| MIC [1] [mg/L] | MIC (E. coli (EC) ATCC 25922 [5]) [mg/L] | IC50 [9, 16] | MIC [10] [mg/L] | MIC [12] [mg/L] | IC50 ([9]; text of b65, unit printed nM, read-out: CAXII inhibition (converted)) [nM] | SMILES | Inhibition Zone CA ATCC 14053 [2] [mm] | IC50 [3] [µM] | Inhibition Zone SA ATCC 25913 [4] [mm] | IC50 [6] [µM] | IC50 [7] [µM] | IC50 [8] [µM] | Inhibition Zone PA ATCC 27853 [11] [mm] | Inhibition Zone EC ATCC 25922 (E. coli (EC) ATCC 25922 [13]) [mm] | IC50 [14] [µM] | IC50 [15] [µM] | Anticancer activity against the four tested tumor cell lines (in words) [6] |
| --- | --- | --- | --- | --- | --- | --- | --- | --- | --- | --- | --- | --- | --- | --- | --- | --- | --- |
| 4 (≈ 6.83 µM) | 4 (≈ 6.83 µM) | 3690 nM | 1 (≈ 1.71 µM) | 16 (≈ 27.3 µM) |  | O=S(=O)(Nc1nccs1)c1ccc(Nc2nc(-c3ccccc3)nc3ccc(I)cc23)cc1 [Compound 3c, 6-Iodo-2-phenyl-4-(4-(thiazol-2-yl)aminosulphonylphenyl-amino) quinazoline] | 16 | 5.5 ± 0.8 | 22 | 4 to 8 | 6.4 ± 0.9 | 4 ± 0.66 | 12 | 15 | > 50 | 8 ± 0.5 |  |
| 16 (≈ 24.8 µM) | 32 (≈ 49.6 µM) | > 50000 nM | 16 (≈ 24.8 µM) | 32 (≈ 49.6 µM) |  | COc1ccc(-c2nc(Nc3ccc(S(=O)(=O)Nc4nccs4)cc3)c3cc(I)ccc3n2)cc1OC [Compound 3e, 6-Iodo-2-(3,4-dimethoxyphenyl)-4-(4-(thiazol-2-yl)aminosulphonylphenyl-amino)-quinazoline] | 12 | > 50 | 14 |  | > 50 | > 50 | 10 | 10 | > 50 | > 50 | devoid of anticancer activities; also recorded: weak activity |
| 16 (≈ 30.1 µM) | 8 (≈ 15 µM) | 3690 nM and 3750 nM | 2 (≈ 3.76 µM) | 32 (≈ 60.1 µM) |  | COc1ccc(-c2nc(Nc3ccc(S(N)(=O)=O)cc3)c3cc(I)ccc3n2)cc1 [Compound 3b, 6-Iodo-4-(4-aminosulphonylphenyl-amino)-2-(4-methoxyphenyl)-quinazoline] | 10 | 7.3 ± 0.9 | 18 | 6 to 9 | 7.3 ± 0.8 | 6.1 ± 0.12 | 10 | 12 | > 50 | 9.1 ± 1.8 |  |
| 8 (≈ 13 µM) | 32 (≈ 52 µM) | 8190 nM | 4 (≈ 6.5 µM) | 32 (≈ 52 µM) | 8910 | COc1ccc(-c2nc(Nc3ccc(S(=O)(=O)Nc4nccs4)cc3)c3cc(I)ccc3n2)cc1 [Compound 3d, 6-Iodo-2-(4-methoxyphenyl)-4-(4-(thiazol-2-yl)aminosulphonylphenyl-amino)-quinazoline] | 12 | 6.1 ± 1.3 | 16 |  | 6.4 ± 1.76 | 8.2 ± 2.1 | 12 | 10 | > 50 | 12.3 ± 0.9 |  |
| 16 (≈ 37.5 µM) | 8 (≈ 18.8 µM) | 9510 nM | 8 (≈ 18.8 µM) |  |  | NS(=O)(=O)c1ccc(Nc2ncnc3ccc(I)cc23)cc1 [Compound 3a, 6-Iodo-4-(4-aminosulphonylphenyl-amino) quinazoline] | 10 | 14 ± 1.6 | 14 |  | 12 ± 1.25 | 10.5 ± 1.6 | 0 | 10 | > 50 | 13.2 ± 1.5 |  |

The remaining lines, values behind:

| SMILES | MIC [1] [mg/L] | MIC (E. coli (EC) ATCC 25922 [5]) [mg/L] | IC50 [9, 16] | MIC [10] [mg/L] | MIC [12] [mg/L] | IC50 ([9]; text of b65, unit printed nM, read-out: CAXII inhibition (converted)) [nM] | Inhibition Zone CA ATCC 14053 [2] [mm] | IC50 [3] [µM] | Inhibition Zone SA ATCC 25913 [4] [mm] | IC50 [6] [µM] | IC50 [7] [µM] | IC50 [8] [µM] | Inhibition Zone PA ATCC 27853 [11] [mm] | Inhibition Zone EC ATCC 25922 (E. coli (EC) ATCC 25922 [13]) [mm] | IC50 [14] [µM] | IC50 [15] [µM] | Anticancer activity against the four tested tumor cell lines (in words) [6] |
| --- | --- | --- | --- | --- | --- | --- | --- | --- | --- | --- | --- | --- | --- | --- | --- | --- | --- |
| COc1cccc2c1C(=O)c1c(O)c3c(c(O)c1C2=O)C[C@@](O)(C(=O)CO)C[C@@H]3O[C@H]1C[C@H](N)[C@H](O)[C@H](C)O1 [Doxorubicin, reference compound] |  |  |  |  |  |  |  | 2.3 ± 0.6 |  | 2.3 to 3.25 | 2.7 ± 0.6 | 3.25 ± 0.5 |  |  |  | 2.8 ± 0.5 |  |
| OC(Cn1cncn1)(Cn1cncn1)c1ccc(F)cc1F [Fluconazole, reference compound] | 1 (≈ 3.27 µM) |  |  |  |  |  | 20 |  |  |  |  |  |  |  |  |  |  |
| O=C(O)c1cn(C2CC2)c2cc(N3CCNCC3)c(F)cc2c1=O [Ciprofloxacin, reference compound] |  |  |  |  |  |  |  |  | 21 |  |  |  | 25 | 25 |  |  |  |
